The values below come from patent US10993983B2, “Cyclic peptide epitopes and small-molecule mimics for inducing autophagy” (TRUSTEES OF TUFTS COLLEGE, priority 2016, dated 2021).

For one assay, the system named is LC3. Briefly: LC3 marker assay (LC3-I to LC3-II conversion immunoblot).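 On Activity (μM) 10, LC3 assay activity: HeLa cells.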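 On Activity (μM) 100, LC3 assay activity: HeLa cells.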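 On Activity (μM) 20, LC3 assay activity: HeLa cells.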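 On Activity (μM) 30, LC3 assay activity: HeLa cells.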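 On Activity (μM) 50, LC3 assay activity: HeLa cells.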 Conditions: for Activity (μM) 10, LC3 assay activity: 10 μM; for Activity (μM) 30, starred cell, LC3 assay activity: *Data taken at 20 instead of 30 μM; for Activity (μM) 20, LC3 assay activity: 20 μM; for Activity (μM) 50, LC3 assay activity: 50 μM; for Activity (μM) 100, LC3 assay activity: 100 μM. The class given is cell-based. Set-up: key: −: activity not reported; 0: decreased vs. WT; +: similar to WT; ++: modest increase vs. WT; +++: significant increase vs. WT.

Another assay concerns p62. Description: p62 degradation assay (p62/actin immunoblot).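 On Activity (μM) 10, p62/actin assay activity: HeLa cells.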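 On Activity (μM) 100, p62/actin assay activity: HeLa cells.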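 On Activity (μM) 20, p62/actin assay activity: HeLa cells.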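 On Activity (μM) 30, p62/actin assay activity: HeLa cells.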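 On Activity (μM) 50, p62/actin assay activity: HeLa cells.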 Set-up: key: −: activity not reported; 0: decreased vs. WT; +: similar to WT; ++: modest increase vs. WT; +++: significant increase vs. WT. To be noted: for Activity (μM) 10, p62/actin assay activity: 10 μM; for Activity (μM) 30, starred cell, p62/actin assay activity: *Data taken at 20 instead of 30 μM; for Activity (μM) 20, p62/actin assay activity: 20 μM; for Activity (μM) 50, p62/actin assay activity: 50 μM; for Activity (μM) 100, p62/actin assay activity: 100 μM. Type of assay: cell-based.

Where [1] appears, read: Table 8, control compound T25, second symbol.
Where [2] appears, read: Table 8, control compound T25, first symbol.
The mark [3] stands for this setting: Table 3, control vehicle, second symbol of cell.
The mark [4] stands for this setting: Table 3, control vehicle, second symbol.
Where [5] appears, read: Table 3, control vehicle, first symbol of cell.
Where [6] appears, read: Table 3, control vehicle, first symbol.

Marks after values point to notes of the source that are not given here. Where no end group is shown, it is not given here. c(FΦRRRRE) = cyclic peptide with F and E termini bonded, Φ = L-2-naphthylalanine

As to “VWNATFHIWH (not fully specified (N-terminus, C-terminus)) [Compound 64]”, the “Activity (μM) 10, LC3 assay activity” value in the assay on LC3 (setting [1]) is reported as 0/0. Further, in the assay on LC3 (Table 8, second symbol), the “Activity (μM) 30, starred cell, LC3 assay activity” value is on record as 0/0*. In the assay on p62 (setting [2]), the “Activity (μM) 10, p62/actin assay activity” value is 0/0. For the same sequence, the “Activity (μM) 30, starred cell, p62/actin assay activity” value with p62 (Table 8, first symbol) was 0/0*.
With “VWNATFHIWHD (not fully specified (N-terminus, C-terminus)) [Compound 6, likely pa-11mer]”, the “Activity (μM) 10, LC3 assay activity” value in the assay on LC3 (setting [3]) is 0/0. Moreover, in the assay with LC3 (setting [4]), the “Activity (μM) 20, LC3 assay activity” value is 0/0; the “Activity (μM) 50, LC3 assay activity” value was 0/0; the “Activity (μM) 100, LC3 assay activity” value is recorded as 0/0. In the assay with LC3 (30 μM, Table 8, control compound T25, second symbol), the “Activity (μM) 30, LC3 assay activity” value is 0/0. In the assay with LC3 (setting [1]), the “Activity (μM) 50, LC3 assay activity” value is 0 and the “Activity (μM) 100, LC3 assay activity” value was 0/0. The “Activity (μM) 10, starred cell, LC3 assay activity” value in the assay with LC3 (Table 8, 10 μM marked * (footnote: data taken at 20 instead of 30 μM), second symbol) is given as 0/0*. For the same sequence, in the assay on p62 (setting [5]), the “Activity (μM) 10, p62/actin assay activity” value is on record as 0/0. Besides, in the assay with p62 (setting [6]), the “Activity (μM) 20, p62/actin assay activity” value was 0/0; the “Activity (μM) 50, p62/actin assay activity” value is 0/0; the “Activity (μM) 100, p62/actin assay activity” value is on record as 0/0. Further, in the assay with p62 (30 μM, Table 8, control compound T25, first symbol), the “Activity (μM) 30, p62/actin assay activity” value is given as 0/0. In the assay with p62 (setting [2]), the “Activity (μM) 50, p62/actin assay activity” value was “++” and the “Activity (μM) 100, p62/actin assay activity” value is given as 0/0. For the same sequence, the “Activity (μM) 10, starred cell, p62/actin assay activity” value in the assay on p62 (Table 8, 10 μM marked * (footnote: data taken at 20 instead of 30 μM), first symbol) is on record as 0/0*.
Turning to “VWNATFHIWHD [62] ({c(FΦRRRRE)}-VWNATFHIWHD; not fully specified; printed as R1 cyclic c(FΦRRRRE) attached) [Compound 62]”, in the assay on LC3 (setting [1]), the “Activity (μM) 10, LC3 assay activity” value is “+++”. In addition, in the assay on LC3 (Table 8, second symbol), the “Activity (μM) 30, starred cell, LC3 assay activity” value is given as “+++/+++*”. Besides, in the assay with p62 (setting [2]), the “Activity (μM) 10, p62/actin assay activity” value is “++”. In the assay with p62 (Table 8, first symbol), the “Activity (μM) 30, starred cell, p62/actin assay activity” value is listed as “+++/+++*”.
As to “VWNATFHIWHD [63] (not fully specified (N-terminus, C-terminus)) [Compound 63]”, the “Activity (μM) 10, LC3 assay activity” value in the assay on LC3 (setting [1]) is listed as “+”. In addition, in the assay with LC3 (Table 8, second symbol), the “Activity (μM) 30, starred cell, LC3 assay activity” value was “+++”. The “Activity (μM) 10, p62/actin assay activity” value in the assay with p62 (setting [2]) came out at 0. Moreover, in the assay on p62 (Table 8, first symbol), the “Activity (μM) 30, starred cell, p62/actin assay activity” value was determined as 0.
For “YGRKKRRQRRRGGVWNATFHIWHD [7] (Ac-YGRKKRRQRRRGGVWNATFHIWHD-NH2) [Compound 7, likely Tat-11mer]”, the “Activity (μM) 10, LC3 assay activity” value in the assay on LC3 (setting [3]) is on record as “++”. Also, the “Activity (μM) 20, LC3 assay activity” value in the assay on LC3 (setting [4]) is given as “+++/+++”. Besides, in the assay on p62 (setting [5]), the “Activity (μM) 10, p62/actin assay activity” value was found to be 0. Moreover, the “Activity (μM) 20, p62/actin assay activity” value in the assay on p62 (setting [6]) was “+++/+++”.
On to “YGRKKRRQRRRGGVWNATFHIWHD [8] (not fully specified (N-terminus, C-terminus)) [Compound 8]”, for which, in the assay with LC3 (setting [3]), the “Activity (μM) 10, LC3 assay activity” value was “+”. For the same sequence, in the assay with LC3 (setting [4]), the “Activity (μM) 20, LC3 assay activity” value is “++” and the “Activity (μM) 50, LC3 assay activity” value is reported as “+++”. In addition, in the assay with p62 (setting [5]), the “Activity (μM) 10, p62/actin assay activity” value stood at 0. Moreover, in the assay with p62 (setting [6]), the “Activity (μM) 20, p62/actin assay activity” value turned out to be 0 and the “Activity (μM) 50, p62/actin assay activity” value was “++”.
